According to patent publication US9708318B2, “Bicyclic heterocycles as FGFR4 inhibitors” (Incyte Corporation, priority 2015, dated 2017):
Like-named read-outs stand apart in the source and are kept apart here.

How the values were obtained:
FGFR2 = FGFR2 (Homo sapiens (Human), UniProt P21802); experiment: FGFR Enzymatic Assay (FRET peptide phosphorylation), FGFR2; type: biochemical
Procedure: (§1) The inhibitor potency of the exemplified compounds was measured in an enzyme assay that measures peptide phosphorylation using FRET measurements to detect product formation. Inhibitors were serially diluted in DMSO and a volume of 0.5 μL was transferred to the wells of a 384-well plate.
The enzymes were purchased from Millipore or Invitrogen.
(§2) GraphPad prism3 was used to analyze the data.

FGFR3 enzyme = FGFR3 enzyme (Homo sapiens (Human), UniProt P22607); experiment: FGFR Enzymatic Assay (FRET peptide phosphorylation), FGFR3; type: biochemical; conditions: read-out: FGFR3 IC50
Procedure: as §1, §2

FGFR1 = FGFR1 (Homo sapiens (Human), UniProt P11362); experiment: FGFR Enzymatic Assay (FRET peptide phosphorylation), FGFR1
[1] = FGFR1 IC50 (nM), pre-incubated for 4 hours
[2] = pre-incubated for 5 to 10 minutes
[3] = read-out: FGFR1 IC50, pre-incubated for 5 to 10 minutes
[4] = read-out: FGFR1 IC50, pre-incubated for 4 hours
[5] = FGFR1 IC50 (nM), pre-incubated for 5 to 10 minutes

Sequence of FGFR2 (P21802 22-821): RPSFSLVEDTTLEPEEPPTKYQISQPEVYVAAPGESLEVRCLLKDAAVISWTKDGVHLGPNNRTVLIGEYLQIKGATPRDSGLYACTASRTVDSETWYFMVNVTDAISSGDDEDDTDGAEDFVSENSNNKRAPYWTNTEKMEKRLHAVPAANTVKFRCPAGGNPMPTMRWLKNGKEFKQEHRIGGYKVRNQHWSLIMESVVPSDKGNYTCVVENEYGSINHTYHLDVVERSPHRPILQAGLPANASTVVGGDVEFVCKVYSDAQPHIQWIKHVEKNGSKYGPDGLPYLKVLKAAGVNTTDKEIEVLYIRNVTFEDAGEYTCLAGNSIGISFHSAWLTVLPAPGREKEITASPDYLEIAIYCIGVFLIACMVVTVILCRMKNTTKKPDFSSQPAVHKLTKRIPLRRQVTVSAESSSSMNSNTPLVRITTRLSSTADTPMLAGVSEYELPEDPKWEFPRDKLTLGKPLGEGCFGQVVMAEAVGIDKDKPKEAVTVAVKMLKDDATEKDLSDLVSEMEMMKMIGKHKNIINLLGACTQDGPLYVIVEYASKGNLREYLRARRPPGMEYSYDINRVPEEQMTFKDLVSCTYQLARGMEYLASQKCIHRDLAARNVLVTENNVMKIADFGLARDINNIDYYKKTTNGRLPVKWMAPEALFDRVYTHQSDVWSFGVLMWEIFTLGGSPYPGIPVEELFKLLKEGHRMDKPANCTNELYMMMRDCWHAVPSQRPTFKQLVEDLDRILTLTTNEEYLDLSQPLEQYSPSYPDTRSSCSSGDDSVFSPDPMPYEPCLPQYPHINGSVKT
Sequence of FGFR1 (P11362 22-822): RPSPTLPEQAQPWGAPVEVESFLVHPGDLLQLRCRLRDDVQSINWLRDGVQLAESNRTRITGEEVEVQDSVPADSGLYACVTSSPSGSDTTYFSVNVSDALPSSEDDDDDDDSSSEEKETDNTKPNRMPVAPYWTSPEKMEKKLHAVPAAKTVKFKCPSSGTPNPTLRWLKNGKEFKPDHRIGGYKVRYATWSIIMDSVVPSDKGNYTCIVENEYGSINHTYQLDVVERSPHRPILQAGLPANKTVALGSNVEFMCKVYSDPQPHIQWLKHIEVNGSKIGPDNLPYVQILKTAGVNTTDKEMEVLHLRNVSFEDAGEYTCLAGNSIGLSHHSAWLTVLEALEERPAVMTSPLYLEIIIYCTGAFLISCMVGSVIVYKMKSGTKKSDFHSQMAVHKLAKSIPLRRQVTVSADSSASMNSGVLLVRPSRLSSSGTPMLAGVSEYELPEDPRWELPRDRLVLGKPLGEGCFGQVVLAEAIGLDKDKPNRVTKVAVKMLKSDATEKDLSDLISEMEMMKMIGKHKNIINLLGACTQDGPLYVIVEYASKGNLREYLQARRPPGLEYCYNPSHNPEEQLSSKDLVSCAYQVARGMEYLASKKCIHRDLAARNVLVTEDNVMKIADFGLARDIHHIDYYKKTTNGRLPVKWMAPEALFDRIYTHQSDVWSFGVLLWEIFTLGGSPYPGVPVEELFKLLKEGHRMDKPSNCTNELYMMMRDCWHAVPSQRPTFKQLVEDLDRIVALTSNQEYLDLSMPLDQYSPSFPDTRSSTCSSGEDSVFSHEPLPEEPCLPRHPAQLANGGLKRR
Sequence of FGFR3 enzyme (P22607 23-806): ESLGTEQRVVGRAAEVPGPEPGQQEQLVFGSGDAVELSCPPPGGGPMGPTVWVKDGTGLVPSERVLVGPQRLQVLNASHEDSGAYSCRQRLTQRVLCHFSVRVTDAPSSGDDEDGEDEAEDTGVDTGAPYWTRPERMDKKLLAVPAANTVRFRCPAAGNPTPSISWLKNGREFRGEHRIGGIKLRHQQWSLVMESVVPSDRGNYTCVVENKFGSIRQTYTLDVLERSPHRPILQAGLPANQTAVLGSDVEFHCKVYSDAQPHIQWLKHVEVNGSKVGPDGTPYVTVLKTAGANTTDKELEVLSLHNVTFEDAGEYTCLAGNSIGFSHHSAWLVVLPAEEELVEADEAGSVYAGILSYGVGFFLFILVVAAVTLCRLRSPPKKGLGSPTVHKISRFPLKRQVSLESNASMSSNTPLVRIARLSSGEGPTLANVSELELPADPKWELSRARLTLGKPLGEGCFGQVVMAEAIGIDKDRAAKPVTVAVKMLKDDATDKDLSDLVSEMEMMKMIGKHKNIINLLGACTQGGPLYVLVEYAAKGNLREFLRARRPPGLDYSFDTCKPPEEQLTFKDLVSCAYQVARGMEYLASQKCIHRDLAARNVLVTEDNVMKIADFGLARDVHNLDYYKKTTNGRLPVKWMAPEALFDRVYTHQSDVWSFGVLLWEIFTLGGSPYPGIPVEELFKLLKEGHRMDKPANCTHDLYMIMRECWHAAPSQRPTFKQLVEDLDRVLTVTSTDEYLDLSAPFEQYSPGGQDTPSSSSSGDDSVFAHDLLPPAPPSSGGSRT

Row | SMILES | IC50 (FGFR2; pre-incubated for 4 hours) [nM] | IC50 (FGFR3 enzyme; pre-incubated for 4 hours) [nM] | IC50 (FGFR1; [1]) [nM] | IC50 (FGFR2; [2]) [nM] | IC50 (FGFR3 enzyme; [2]) [nM] | IC50 (FGFR1; [3]) [nM] | IC50 (FGFR1; [4]) [nM] | IC50 (FGFR1; [5]) [nM]
1 | CCN1C(=O)N(c2c(F)c(OC)cc(OC)c2F)Cc2cnc(-c3cnn(C)c3)cc21 [Example 169, 3-(2,6-difluoro-3,5-dimethoxyphenyl)-1-ethyl-7-(1-methyl-1H-pyrazol-4-yl)-3,4-dihydropyrido[4,3-d]pyrimidin-2(1H)-one] | < 10 | < 10 | – | < 10 | < 10 | < 10 | < 10 | –
11 | CCc1nnc(CN2C(=O)N(c3c(F)c(OC)cc(OC)c3F)Cc3cnc(-c4cn(C)nc4C)cc32)o1 [Example 67, 3-(2,6-difluoro-3,5-dimethoxyphenyl)-7-(1,3-dimethyl-1H-pyrazol-4-yl)-1-((5-ethyl-1,3,4-oxadiazol-2-yl)methyl)-3,4-dihydropyrido[4,3-d]pyrimidin-2(1H)-one] | < 10 | < 10 | […] | – | – | – | – | –
12 | COc1cc(OC)c(F)c(N2Cc3cnc(-c4cn(C)nc4C)cc3N(CC3CCOCC3)C2=O)c1F [Example 37, 3-(2,6-difluoro-3,5-dimethoxyphenyl)-7-(1,3-dimethyl-1H-pyrazol-4-yl)-1-((tetrahydro-2H-pyran-4-yl)methyl)-3,4-dihydropyrido[4,3-d]pyrimidin-2(1H)-one] | < 10 | < 10 | 10 to 30 | – | – | – | – | –
14 | CCn1cc(CN2C(=O)N(c3c(F)c(OC)cc(OC)c3F)Cc3cnc(-c4cnn(C)c4)cc32)cn1 [Example 145, 3-(2,6-difluoro-3,5-dimethoxyphenyl)-1-((1-ethyl-1H-pyrazol-4-yl)methyl)-7-(1-methyl-1H-pyrazol-4-yl)-3,4-dihydropyrido[4,3-d]pyrimidin-2(1H)-one] | – | – | – | < 10 | < 10 | < 10 | – | –

The remaining lines, values ahead:

Row | IC50 (FGFR2; pre-incubated for 4 hours) [nM] | IC50 (FGFR3 enzyme; pre-incubated for 4 hours) [nM] | IC50 (FGFR1; [1]) [nM] | IC50 (FGFR2; [2]) [nM] | IC50 (FGFR3 enzyme; [2]) [nM] | IC50 (FGFR1; [3]) [nM] | IC50 (FGFR1; [4]) [nM] | IC50 (FGFR1; [5]) [nM] | SMILES
22 | < 10 | < 10 | – | – | – | – | < 10 | – | COc1cc(OC)c(F)c(N2Cc3cnc(-c4cn(C)nc4C)cc3N(Cc3ccccn3)C2=O)c1F [Example 94, 3-(2,6-difluoro-3,5-dimethoxyphenyl)-7-(1,3-dimethyl-1H-pyrazol-4-yl)-1-(pyridin-2-ylmethyl)-3,4-dihydropyrido[4,3-d]pyrimidin-2(1H)-one]
